Measured values published in US20120071475A1, “UREA DERIVATIVES HAVING PI3K-INHIBITING ACTIVITY” (SHIONOGI & CO., LTD., priority 2009, published 2012).
In brackets after ≈: the same amount, converted by molar mass. Where two headings read alike, the source gives them in different places.

Tests used:
PI3Kγ [1] = target: T1, PI3Kγ (Homo sapiens, UniProt P48736); experiment: PI3Kγ inhibitory activity (PI3-kinase HTRF assay, inhibition ratio); assay type: biochemical; details: 0.5 h, compound at 10 μmol/L; read-out: PI3Kg Inhibition Ratio % (10 μM)
T1 sequence (P48736 whole entry, species assumed): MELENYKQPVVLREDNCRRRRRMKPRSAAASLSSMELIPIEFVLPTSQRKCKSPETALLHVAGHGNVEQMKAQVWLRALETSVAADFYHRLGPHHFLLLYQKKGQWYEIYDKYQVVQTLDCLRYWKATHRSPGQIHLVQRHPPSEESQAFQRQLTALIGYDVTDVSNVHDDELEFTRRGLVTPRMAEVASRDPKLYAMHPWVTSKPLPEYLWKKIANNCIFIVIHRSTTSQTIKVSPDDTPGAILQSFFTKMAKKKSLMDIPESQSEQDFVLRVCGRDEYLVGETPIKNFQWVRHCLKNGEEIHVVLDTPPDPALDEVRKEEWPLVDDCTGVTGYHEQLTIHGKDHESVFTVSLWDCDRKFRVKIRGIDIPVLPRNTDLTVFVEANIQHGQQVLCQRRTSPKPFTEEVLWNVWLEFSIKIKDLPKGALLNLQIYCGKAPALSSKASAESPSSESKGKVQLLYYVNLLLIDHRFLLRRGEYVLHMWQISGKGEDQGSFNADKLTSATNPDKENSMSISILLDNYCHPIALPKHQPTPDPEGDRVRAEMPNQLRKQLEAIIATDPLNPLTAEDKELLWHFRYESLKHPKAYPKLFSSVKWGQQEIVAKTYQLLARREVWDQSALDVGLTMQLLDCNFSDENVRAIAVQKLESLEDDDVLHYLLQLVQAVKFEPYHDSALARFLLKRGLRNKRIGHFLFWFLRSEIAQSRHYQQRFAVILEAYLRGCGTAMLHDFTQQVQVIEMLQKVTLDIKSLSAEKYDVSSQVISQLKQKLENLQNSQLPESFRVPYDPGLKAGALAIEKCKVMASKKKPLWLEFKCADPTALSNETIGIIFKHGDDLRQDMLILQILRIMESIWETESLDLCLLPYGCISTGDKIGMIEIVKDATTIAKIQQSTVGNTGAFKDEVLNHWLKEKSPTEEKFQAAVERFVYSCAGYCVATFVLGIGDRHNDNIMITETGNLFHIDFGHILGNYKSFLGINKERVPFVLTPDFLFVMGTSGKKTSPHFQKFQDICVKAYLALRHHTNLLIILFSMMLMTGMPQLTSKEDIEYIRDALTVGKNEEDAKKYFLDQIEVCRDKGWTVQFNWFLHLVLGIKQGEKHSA
Method in brief: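 Compound at 10 μmol/L preincubated 10 min with PI3Kγ and PIP2 substrate, then reacted with ATP for 30 minutes at room temperature; the compound, substrate and ATP figures as printed (40 μmol/L each) are solution concentrations. HTRF 665/620 nm ratio read after 18 hours. Inhibition ratio calculated against no-compound (100%) and no-enzyme (0%) controls.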

[2] = test system: CYP1A2, CYP2C9, CYP2C19, CYP2D6 and CYP3A4 (one value for the five species); experiment: CYP inhibition test, five CYP species together (5CYPs_IC50; pooled human liver microsome); assay type: in vitro ADME; details: human, microsomes
Text: O-de-ethylation of 7-ethoxyresorufin (CYP1A2), methyl-hydroxylation of tolbutamide (CYP2C9), 4′-hydroxylation of mephenyloin (CYP2C19), O-demethylation of dextromethorphan (CYP2D6), and hydroxylation of terfenadine (CYP3A4), which are typical substrate for metabolic reactions of human main CYP5 molecular species (CYP1A2, 2C9, 2C19, 2D6, and 3A4), were adopted as indexes.
The reaction conditions are as follows: substrate: 0.5 μmol/L of ethoxyresorufin (CYP1A2), 100 μmol/L of tolbutamide (CYP2C9), 50 μmol/L of S-mephenyloin (CYP2C19), 5 μmol/L of dextromethorphan (CYP2D6), and 1 μmol/L of terfenadine (CYP3A4); reaction time; 15 minutes; reaction temperature: 37° C.; enzyme: pooled human liver microsome 0.2 mg protein/mL; test drug concentration: 1, 5, 10, and 20 μmol/L (4 points).
In a 96-well plate, as a reaction solution, five kinds of substrates, a human liver microsome, and a test drug were added to 50 mmol/L Hepes buffer solution in the aforementioned ratio. A coenzyme NADPH was added to start a metabolic reaction, which is an index. After reacting at 37° C. for 15 minutes, a solution of methanol/acetonitrile (1/1 (v/v)) was added to quench the reaction. After centrifugation at 3000 rpm for 15 minutes, resorufin (CYP1A2 metabolite) in the supernatant was quantitated with a fluorescence multilabel counter, and hydroxylated tolbutamide (CYP2C9 metabolite), 4′-hydroxylated mephenyloin (CYP2C19 metabolite), […], terfenadine in alcohol form (CYP3A4 metabolite) were quantitated with LC/MS/MS.
The case wherein only DMSO (a solvent which dissolved a drug) was added to a reaction system was defined as a control (100%). When a test drug solution was added, the remaining activity (%) at each concentration was calculated, and then IC50 was calculated with a concentration and an inhibition ratio by an inverse estimation using a logistic model.

CYP3A4 = target: T2, CYP3A4 (Homo sapiens, UniProt P08684); experiment: CYP3A4 fluorescence MBI test; assay type: in vitro ADME; details: difference in IC50 with 0 or 30 minutes pre-reaction; CYP3A4 expressed in E. coli, substrate 7-BFC
T2 construct: host or cells: E. coli
T2 sequence (P08684 whole entry): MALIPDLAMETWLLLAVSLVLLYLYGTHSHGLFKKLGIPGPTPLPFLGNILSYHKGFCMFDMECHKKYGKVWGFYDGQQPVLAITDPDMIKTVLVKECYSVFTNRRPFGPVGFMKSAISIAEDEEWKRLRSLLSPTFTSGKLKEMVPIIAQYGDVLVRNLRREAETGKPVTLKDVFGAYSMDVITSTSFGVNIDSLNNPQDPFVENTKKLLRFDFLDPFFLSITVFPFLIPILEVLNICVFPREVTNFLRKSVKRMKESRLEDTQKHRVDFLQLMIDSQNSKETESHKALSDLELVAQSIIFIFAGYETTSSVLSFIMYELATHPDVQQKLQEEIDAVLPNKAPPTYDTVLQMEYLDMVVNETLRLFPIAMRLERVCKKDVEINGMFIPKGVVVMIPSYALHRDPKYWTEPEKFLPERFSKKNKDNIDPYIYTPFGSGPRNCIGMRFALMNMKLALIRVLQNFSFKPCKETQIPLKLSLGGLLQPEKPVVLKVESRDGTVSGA
Method in brief: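 E. coli-expressed CYP3A4 debenzylating 5.6 μmol/L 7-BFC to fluorescent 7-HFC (Ex 420/Em 535 nm) in K-Pi pH 7.4 at 25° C, 15 min reaction. NADPH pre-incubation of 0 or 30 min, with 10-fold dilution before reaction. IC50 from 0.625–20 μmol/L (6 points); (+) for an IC50 shift ≥5 μmol/L, (−) for ≤3 μmol/L.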

[3] = Solubility test (artificial intestinal juice pH 6.8, 1% DMSO); assay type: physicochemical; details: artificial intestinal juice pH 6.8 with 1% DMSO, fassgf or other biorelevant, kinetic from dmso stock, 25° C.
Experimental: The solubility of a compound was determined under a condition in which 1% DMSO was added. 10 mmol/L compound solution was prepared using DMSO, and then 6 μL of the compound solution was added to 594 μL of artificial intestinal juice in pH 6.8 (to 250 mL of 0.2 mol/L potassium dihydrogen phosphate reagent solution was added 118 mL of 0.2 mol/L NaOH reagent solution and water to provide a final volume of 1000 mL). After standing at 25° C. for 16 hours, the mixed solution was filtered with suction. The filtrate was diluted twice with methanol/water (1/1), and then a concentration in the filtration was measured with HPLC or LC/MS/MS by the absolute calibration method.

hERG channel (IKr) = target: T3, hERG channel (IKr) (Homo sapiens, UniProt Q12809); experiment: hERG test (whole-cell patch-clamp, IKr in HEK293 cells); assay type: cell-based; details: human, HEK293 cells expressing hERG channel, pH 7.4, inhibition of maximum tail current (IKr); for inhibition at 10 min, 1 µM: compound 1 μM
T3 construct: expressed in transfected cells; host or cells: HEK293
T3 sequence (Q12809 whole entry): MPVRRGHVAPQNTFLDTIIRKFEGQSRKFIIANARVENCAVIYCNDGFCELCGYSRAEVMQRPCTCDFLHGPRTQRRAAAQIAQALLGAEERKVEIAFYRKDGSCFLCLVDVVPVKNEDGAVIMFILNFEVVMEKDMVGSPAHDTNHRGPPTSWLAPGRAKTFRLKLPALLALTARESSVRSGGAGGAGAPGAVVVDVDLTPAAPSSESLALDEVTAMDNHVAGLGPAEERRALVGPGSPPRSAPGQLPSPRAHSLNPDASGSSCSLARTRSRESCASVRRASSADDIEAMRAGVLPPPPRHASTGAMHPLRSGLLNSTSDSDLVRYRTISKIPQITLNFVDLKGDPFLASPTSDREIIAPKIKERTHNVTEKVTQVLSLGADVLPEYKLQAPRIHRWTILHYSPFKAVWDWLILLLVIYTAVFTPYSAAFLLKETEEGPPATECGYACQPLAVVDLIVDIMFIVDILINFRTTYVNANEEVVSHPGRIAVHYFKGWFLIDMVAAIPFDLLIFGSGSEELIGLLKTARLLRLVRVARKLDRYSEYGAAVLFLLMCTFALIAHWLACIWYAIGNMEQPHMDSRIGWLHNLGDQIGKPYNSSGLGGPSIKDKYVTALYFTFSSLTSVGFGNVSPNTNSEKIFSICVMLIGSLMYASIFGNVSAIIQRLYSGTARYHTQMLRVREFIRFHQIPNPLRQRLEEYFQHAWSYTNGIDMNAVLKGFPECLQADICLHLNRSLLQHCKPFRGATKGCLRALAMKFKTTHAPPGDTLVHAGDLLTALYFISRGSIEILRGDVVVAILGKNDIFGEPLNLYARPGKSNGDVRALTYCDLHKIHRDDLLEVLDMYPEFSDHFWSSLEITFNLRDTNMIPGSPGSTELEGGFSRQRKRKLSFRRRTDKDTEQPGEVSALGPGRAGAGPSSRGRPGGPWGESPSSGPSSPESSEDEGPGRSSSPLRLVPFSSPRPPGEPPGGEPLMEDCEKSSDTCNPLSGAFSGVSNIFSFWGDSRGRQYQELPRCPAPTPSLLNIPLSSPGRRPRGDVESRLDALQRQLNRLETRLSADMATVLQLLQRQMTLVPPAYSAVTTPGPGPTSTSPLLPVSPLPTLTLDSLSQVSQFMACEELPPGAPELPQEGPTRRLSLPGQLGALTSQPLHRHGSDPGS
Method in brief: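 hERG-expressing HEK293 cells, automated whole-cell patch clamp: hold −80 mV, +50 mV for 2 s, then −50 mV for 2 s to record IKr tail current. Compound in extracellular solution (pH 7.4) for 10 min at room temperature; inhibition of maximum tail current calculated versus pre-application and compared with 0.1% DMSO vehicle.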

[4] = Metabolic stability test (pooled human liver microsome); assay type: in vitro ADME; details: percentage of test compound remained after 30 minutes, pooled human liver microsome 0.5 mg protein/mL, 1 mmol/L NADPH, 37° C., compound 0.5 μM
Method in brief: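 Pooled human liver microsomes (0.5 mg protein/mL) incubated with compound and 1 mmol/L NADPH at 37° C. in pH 7.4 Tris buffer for 0 or 30 min. Parent quantified by LC/MS/MS after methanol/acetonitrile quench; value is % remaining at 30 min versus 0 min.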

AKT phosphorylation = AKT phosphorylation inhibitory activity in MCP-1 stimulated THP-1 cells (sandwich ELISA); assay type: cell-based, Human; details: Homo sapiens, compound at 1 μmol/L, MCP-1 stimulation, read-out: AKT phosphorylation inhibition ratio
Method in brief: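 THP-1 cells (6.7×10^6/mL in HBSS) were preincubated with compound at 1 μmol/L for 5 min at 37 °C, then stimulated for 60 s with HBSS containing 1.2 μg/mL MCP-1 and lysed. Phospho-Akt Ser473/AKT1 sandwich ELISA was read at A450. % inhibition: no compound = 100% activity, no MCP-1 = 0%.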

PI3Kδ = PI3Kδ (Homo sapiens, UniProt O00329); experiment: PI3Kδ inhibitory activity (Ki value); assay type: biochemical; details: class symbols; read-out: PI3K δ Ki
Sequence of PI3Kδ (O00329 whole entry, species assumed): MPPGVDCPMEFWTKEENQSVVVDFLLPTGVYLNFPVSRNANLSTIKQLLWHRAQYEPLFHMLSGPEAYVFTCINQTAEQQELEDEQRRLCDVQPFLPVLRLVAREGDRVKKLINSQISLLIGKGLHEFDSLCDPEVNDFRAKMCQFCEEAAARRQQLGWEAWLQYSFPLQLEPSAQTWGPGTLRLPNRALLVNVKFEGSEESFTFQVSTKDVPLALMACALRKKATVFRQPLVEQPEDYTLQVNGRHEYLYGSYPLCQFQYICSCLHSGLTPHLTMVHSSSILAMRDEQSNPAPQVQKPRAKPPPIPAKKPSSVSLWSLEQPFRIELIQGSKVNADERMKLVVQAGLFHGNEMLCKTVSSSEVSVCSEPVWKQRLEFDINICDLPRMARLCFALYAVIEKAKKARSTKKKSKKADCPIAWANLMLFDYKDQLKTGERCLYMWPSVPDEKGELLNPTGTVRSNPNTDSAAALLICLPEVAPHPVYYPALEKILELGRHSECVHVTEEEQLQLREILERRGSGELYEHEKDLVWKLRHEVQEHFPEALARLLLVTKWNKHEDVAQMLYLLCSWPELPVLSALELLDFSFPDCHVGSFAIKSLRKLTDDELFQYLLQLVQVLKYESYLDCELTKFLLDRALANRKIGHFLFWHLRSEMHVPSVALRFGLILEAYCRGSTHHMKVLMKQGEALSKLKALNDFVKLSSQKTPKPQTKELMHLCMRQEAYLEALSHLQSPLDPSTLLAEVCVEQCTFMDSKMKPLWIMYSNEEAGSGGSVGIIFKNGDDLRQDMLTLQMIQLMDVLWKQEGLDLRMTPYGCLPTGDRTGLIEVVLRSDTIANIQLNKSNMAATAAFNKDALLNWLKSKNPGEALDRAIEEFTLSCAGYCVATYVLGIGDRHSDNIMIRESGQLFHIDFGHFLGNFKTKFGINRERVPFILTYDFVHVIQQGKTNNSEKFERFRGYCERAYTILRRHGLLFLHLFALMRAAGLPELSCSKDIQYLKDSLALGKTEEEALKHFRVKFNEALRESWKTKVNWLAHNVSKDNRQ
Sequence of PI3Kδ (P27986 whole entry partner, species assumed): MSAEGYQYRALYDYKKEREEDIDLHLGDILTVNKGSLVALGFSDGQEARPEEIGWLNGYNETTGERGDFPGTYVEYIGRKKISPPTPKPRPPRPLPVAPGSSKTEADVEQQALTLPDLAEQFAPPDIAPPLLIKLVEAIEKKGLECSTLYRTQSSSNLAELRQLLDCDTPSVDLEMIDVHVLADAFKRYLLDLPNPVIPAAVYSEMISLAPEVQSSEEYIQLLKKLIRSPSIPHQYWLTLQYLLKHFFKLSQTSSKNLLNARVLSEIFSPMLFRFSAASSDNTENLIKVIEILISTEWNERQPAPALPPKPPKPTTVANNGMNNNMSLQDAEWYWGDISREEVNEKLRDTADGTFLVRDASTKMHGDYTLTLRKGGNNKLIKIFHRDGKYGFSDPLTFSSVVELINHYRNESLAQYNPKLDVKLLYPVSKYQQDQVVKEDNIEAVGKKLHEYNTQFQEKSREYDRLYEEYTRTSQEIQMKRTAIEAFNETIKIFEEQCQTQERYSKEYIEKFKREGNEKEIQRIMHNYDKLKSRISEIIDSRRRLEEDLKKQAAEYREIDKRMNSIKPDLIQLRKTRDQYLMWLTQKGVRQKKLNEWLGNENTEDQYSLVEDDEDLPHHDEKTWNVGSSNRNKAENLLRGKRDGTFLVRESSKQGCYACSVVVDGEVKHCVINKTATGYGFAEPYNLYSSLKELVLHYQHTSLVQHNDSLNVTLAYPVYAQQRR
Experimental: (§1) According to Example 2 above, after 80 μg/mL PI-3 kinase γ of the enzyme solution (80 μg/mL PI-3 kinase γ, 10 mmol/L MgCl2, 5 mmol/L DTT) was changed to 158 μg/mL PI-3 kinase δ, a method similar to the method for measuring PI3Kγ inhibitory activity was used to calculate an inhibition ratio, which was defined as the PI3Kδ inhibitory activity.
According to Example 4 above, a Km value for PI3Kδ was determined to calculate a Ki value.

PI3Kγ [5] = target: T1, PI3Kγ; experiment: PI3Kγ inhibitory activity (Ki value); assay type: biochemical
Method in brief: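 Ki derived from IC50 measured at final compound levels of 50–0.05 μmol/L (HTRF read-out; 40 μmol/L ATP, 10 mmol/L MgCl2, 5 mmol/L DTT), IC50 by logistic or two-point linear fit. ATP Km from Lineweaver-Burk over 0.625–80 μmol/L ATP; Ki = IC50/(1+[ATP]/Km).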

PI3Kα = PI3Kα (Homo sapiens, UniProt P42336); experiment: PI3Kα inhibitory activity (Ki value); assay type: biochemical; details: class symbols; read-out: PI3K α Ki
Experimental: as §1, with “0.8” for “158”, “α, an inhibition ratio was calculated by” for “δ,”, “activity, and then” for “activity was used to calculate an inhibition ratio, which was”, “PI3Kα” for “PI3Kδ”
The α inhibitory activity (Ki value) of a compound was evaluated according to the following procedure.
According to Example 4 above, a Km value for PI3Kα was determined to calculate a Ki value.

PI3Kβ = PI3Kβ (Homo sapiens, UniProt P42338); experiment: PI3Kβ inhibitory activity (Ki value); assay type: biochemical; details: class symbols; read-out: PI3K β Ki
Experimental: as §1, with “60” for “158”, “β,” for “δ,”, “PI3Kβ” for “PI3Kδ”
According to Example 4 above, a Km value for PI3Kβ was determined to calculate a Ki value.

Row | Structure (SMILES) | inhibition at 10 µM (PI3Kγ [1]) [%] | IC50 at 15 min [2] [µM] | solubility at 16 h [3] [µM] | hLMS_ox(at 0.5 μM) % [4] [%] | other results
1 | COc1cc(N2CCc3nc(NC(=O)Nc4ccccc4C(=O)N4CCOCC4)sc3C2)nc(OC)n1 [Compound I-10] | 68 | > 20 | > 50 | – | MBI (CYP3A4): (−) (When 3 μmol/L or less, the compound is shown as (−))
2 | COc1cc(N2CCc3nc(NC(=O)Nc4ccccc4C(=O)NC(C)(C)C(=O)O)sc3C2)nc(OC)n1 [Compound I-19] | ≥ 95 | > 20 | > 50 | 87.2 | inhibition at 10 min, 10 µM (hERG channel (IKr); compound 10 μM): 9.5%
3 | COc1cc(N2CCc3nc(NC(=O)NC4CCCCC4C(=O)NC(C)C)sc3C2)nc(OC)n1 (stereo not drawn) [Compound I-31] | 90 | ≥ 10 | 32.3 (≈ 16.3 µg/mL) | – | –
4 | COc1cc(N2CCc3nc(NC(=O)Nc4ccccc4CNC(C)C)sc3C2)nc(OC)n1 [Compound I-84] | – | > 20 | > 50 | – | –
5 | CCNC(=O)c1ccncc1NC(=O)Nc1nc2c(s1)CN(c1cnc(OC)c(OC)c1)CC2 [Compound I-103] | ≥ 95 | – | 30.1 (≈ 14.6 µg/mL) | 85.8 | inhibition at 10 min, 1 µM (hERG channel (IKr)): 3.6%
6 | COc1ccc(N2CCc3nc(NC(=O)Nc4ccccc4C(=O)NC(C)CO)sc3C2)cc1OC (stereo not drawn) [Compound I-107] | – | ≥ 10 | 42.6 (≈ 21.8 µg/mL) | 98 | inhibition at 10 min, 1 µM (hERG channel (IKr)): 5.4%
7 | CC(CO)NC(=O)c1ccccc1NC(=O)Nc1nc2c(s1)CN(c1ccc(F)cn1)CC2 (stereo not drawn) [Compound I-120] | ≥ 95 | – | 17.5 (≈ 8.23 µg/mL) | 92.3 | –
8 | COc1cc(N2CCc3nc(NC(=O)Nc4ccccc4C(=O)NC(C)CN(C)C)sc3C2)nc(OC)n1 (stereo not drawn) [Compound I-137] | ≥ 95 | – | > 50 | 94.5 | inhibition at 1 µM (AKT phosphorylation): 85%
9 | CCOC(=O)[C@H]1CCC[C@H]1NC(=O)Nc1nc2c(s1)CN(c1cc(OC)nc(OC)n1)CC2 [Compound I-149] | – | > 20 | 36.1 (≈ 17.2 µg/mL) | – | –
10 | COc1cc(N2CCc3nc(NC(=O)Nc4ccccc4C(=O)NCC(C)(C)O)sc3C2)nc(OC)n1 [Compound I-158] | 86 | – | 24.9 (≈ 13.1 µg/mL) | 99 | inhibition at 10 min, 1 µM (hERG channel (IKr)): 9.2%; inhibition at 1 µM (AKT phosphorylation): ≥ 95%
11 | CC(C)NC(=O)c1ccccc1NC(=O)Nc1nc2c(s1)CN(c1cc[nH]c(=O)c1)CC2 [Compound I-178] | ≥ 95 | – | 10 (≈ 4.53 µg/mL) | 97.9 | –
12 | COc1cc(N2CCc3nc(NC(=O)Nc4ccccc4C(=O)NN(C)C)sc3C2)nc(OC)n1 [Compound I-182] | ≥ 95 | – | 19.6 (≈ 9.77 µg/mL) | 88.1 | inhibition at 10 min, 1 µM (hERG channel (IKr)): 4.9%; inhibition at 1 µM (AKT phosphorylation): ≥ 95%
13 | C[C@@H](CO)NC(=O)c1ccccc1NC(=O)Nc1nc2c(s1)CN(c1cc[nH]c(=O)c1)CC2 [Compound I-183] | 91 | – | 28.1 (≈ 13.2 µg/mL) | 109 | Ki (PI3Kδ): > 3 µM; Ki (PI3Kγ [5]; class symbols, read-out: PI3K γ Ki): ≤ 0.3 µM; Ki (PI3Kγ [5]; read-out: PI3Kγ Ki value): 0.09 µM; Ki (PI3Kα): > 3 µM; Ki (PI3Kβ): > 3 µM
14 | C[C@@H](CO)NC(=O)c1ccccc1NC(=O)Nc1nc2c(s1)CN(c1cncc(C#N)c1)CC2 [Compound I-189] | 92 | – | 10.3 (≈ 4.92 µg/mL) | – | MBI (CYP3A4): (−) (When 3 μmol/L or less, the compound is shown as (−))
15 | COc1cc(N2CCc3nc(NC(=O)Nc4ccccc4C(=O)NC4CCNCC4)sc3C2)nc(OC)n1 [Compound I-202] | ≥ 95 | ≥ 10 | > 50 | 104 | –
16 | CC(C)NC(=O)c1ccccc1NC(=O)Nc1nc2c(s1)CN(c1cnc(N)c(C(F)(F)F)c1)CC2 [Compound I-212] | ≥ 95 | ≥ 10 | 14 (≈ 7.27 µg/mL) | – | inhibition at 1 µM (AKT phosphorylation): ≥ 95%
